# Results taken from patent US20230085307A1, “PYRIDAZINONE COMPOUND AND HERBICIDE” (NISSAN CHEMICAL CORPORATION, priority 2019, published 2023).
# Legend:
# [1] = tested on: late watergrass; assay: Test Example 2: herbicidal activity, application during weed generation under submerged conditions (Table 17, symbol A); type: in vivo, late watergrass (Echinochloa oryzicola); conditions: AAH 320 g/ha; application during weed generation, submerged conditions
# In short: (§1)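 Steps: fill Wagner pots with alluvial soil; add water to give 4 cm depth; sow the species mixed; grow under glass at 25–30° C.; at 1–2 leaves apply water-diluted emulsion formulation to the water surface at a fixed herbicide amount; score after 3 weeks.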
# [2] = tested on: lambsquarters; assay: Test Example 4: herbicidal effect by soil treatment (Table 19, symbol O); type: in vivo, lambsquarters (Chenopodium album); conditions: amount of applied herbicide 320 g/ha
# In short: (§2)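 Herbicidal effect was rated 3 weeks after treatment, using the scoring criteria of an earlier test. The compound, formulated as an emulsion and diluted in water to a set herbicide amount, had been sprayed uniformly on soil over freshly sown seeds. Growth took place in a greenhouse at 25° C. to 30° C.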
# [3] = tested on: windgrass; assay: Test Example 5: herbicidal effect by foliage application, plastic box (Table 20, symbol L); type: in vivo, windgrass (Apera spica-venti)
# In short: (§3)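 Foliar spray test: emulsion formulation diluted in water to a set application rate, sprayed onto 14-day-old plants raised in diluvial soil at 25° C to 30° C under glass. Both herbicidal effect and crop effect rated visually three weeks later.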
# [4] = tested on: late watergrass; assay: Test Example 1: herbicidal activity, application before weed generation under submerged conditions (Table 16, symbol A); type: in vivo, late watergrass (Echinochloa oryzicola); conditions: amount of applied herbicide 320 g/ha
# In short: (§4)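 Emulsion formulation, water-diluted to set dose, was put onto the flooded surface (4 cm depth, alluvial soil) the same day weeds were sown and 2.5-leaf rice transplanted. After 3 weeks at 25-30 °C under glass, each species was rated 0 (≤5% kill) to 5 (≥90% kill).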
# [5] = tested on: persian speedwell; assay: Test Example 4: herbicidal effect by soil treatment (Table 19, symbol R); type: in vivo, Persian speedwell (Veronica persica); conditions: amount of applied herbicide 320 g/ha
# In short: as §2
# [6] = tested on: persian speedwell; assay: Test Example 5: herbicidal effect by foliage application, plastic box (Table 20, symbol R); type: in vivo, Persian speedwell (Veronica persica)
# In short: as §3
# [7] = tested on: velvetleaf; assay: Test Example 4: herbicidal effect by soil treatment (Table 19, symbol M); type: in vivo, velvetleaf (Abutilon theophrasti); conditions: amount of applied herbicide 320 g/ha
# In short: as §2
# [8] = tested on: chickweed; assay: Test Example 5: herbicidal effect by foliage application, plastic box (Table 20, symbol P); type: in vivo, common chickweed (Stellaria media); conditions: for P: chickweed, herbicidal effect grade: three weeks after application
# In short: as §3
# [9] = tested on: green foxtail; assay: Test Example 5: herbicidal effect by foliage application, plastic box (Table 20, symbol G); type: in vivo, green foxtail (Setaria viridis)
# In short: as §3
# [10] = tested on: Italian ryegrass; assay: Test Example 4: herbicidal effect by soil treatment (Table 19, symbol K); type: in vivo, Italian ryegrass (Lolium multiflorum); conditions: amount of applied herbicide 320 g/ha
# In short: as §2
# [11] = tested on: barnyard grass; assay: Test Example 4: herbicidal effect by soil treatment (Table 19, symbol H); type: in vivo, barnyard grass (Echinochloa crus-galli); conditions: amount of applied herbicide 320 g/ha
# In short: as §2
# [12] = tested on: redroot pigweed; assay: Test Example 5: herbicidal effect by foliage application, plastic box (Table 20, symbol N); type: in vivo, redroot pigweed (Amaranthus retroflexus)
# In short: as §3
# [13] = tested on: barnyard grass; assay: Test Example 3: herbicidal effect by foliage application, Wagner pot (Table 18, symbol H); type: in vivo, barnyard grass (Echinochloa crus-galli); conditions: for herbicidal effect on barnyard grass (H): 320 g/ha
# In short: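 Plants were sown in alluvial soil held under 0.1–0.5 cm standing water and grown 14 days in a greenhouse at 25–30 °C. An emulsifiable formulation, water-diluted to the set dose, was then sprayed onto the foliage, and effects were scored three weeks later using previously defined criteria.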
# [14] = tested on: oval-leafed pondweed; assay: Test Example 2: herbicidal activity, application during weed generation under submerged conditions (Table 17, symbol C); type: in vivo, oval-leafed pondweed (Monochoria vaginalis); conditions: AAH 320 g/ha; application during weed generation, submerged conditions
# In short: as §1
# [15] = tested on: chickweed; assay: Test Example 4: herbicidal effect by soil treatment (Table 19, symbol P); type: in vivo, common chickweed (Stellaria media); conditions: amount of applied herbicide 320 g/ha
# In short: as §2
# [16] = tested on: Japanese bulrush; assay: Test Example 1: herbicidal activity, application before weed generation under submerged conditions (Table 16, symbol B); type: in vivo, Japanese bulrush (Schoenoplectus juncoides); conditions: amount of applied herbicide 320 g/ha
# In short: as §4
# [17] = tested on: windgrass; assay: Test Example 4: herbicidal effect by soil treatment (Table 19, symbol L); type: in vivo, windgrass (Apera spica-venti); conditions: amount of applied herbicide 320 g/ha
# In short: as §2
# [18] = 320 g/ha, foliage application after 14-day growth, evaluated three weeks after application
# [19] = foliage application, AAH 320 g/ha, evaluated three weeks after application
# [20] = amount of applied herbicide 320 g/ha
# [21] = foliage application, 320 g/ha, three weeks after application
SMILES,"herbicidal effect rating, A: late watergrass [1]","Herbicidal effect by soil treatment, O: lambsquarters [2]","Herbicidal effect, A: late watergrass [4]","Herbicidal effect by soil treatment, R: persian speedwell [5]","Herbicidal effect by soil treatment, M: velvetleaf [7]","Herbicidal effect by soil treatment, K: Italian ryegrass [10]","Herbicidal effect by soil treatment, H: barnyard grass [11]",herbicidal effect on barnyard grass (H) [13],"herbicidal effect rating, C: oval-leafed pondweed [14]","Herbicidal effect by soil treatment, P: chickweed [15]","Herbicidal effect, B: Japanese bulrush [16]","Herbicidal effect by soil treatment, L: windgrass [17]","herbicidal effect, O: lambsquarters [2]","herbicidal effect, R: persian speedwell [5]","herbicidal effect, M: velvetleaf [7]","herbicidal effect, K: Italian ryegrass [10]","herbicidal effect on H: barnyard grass [13, 20]","herbicidal effect, P: chickweed [15]","herbicidal effect, L: windgrass [17]","R: persian speedwell, herbicidal effect grade [6, 21]",other results
COc1ccccc1-c1sc2cc(SC)ccc2c1-c1c(O)c(C)nn(C)c1=O [3-163],3 (Herbicidal rate of 40% or more and less than 70%),3 (Herbicidal rate of 40% or more and less than 70%),3 (Herbicidal rate of 40% or more and less than 70%),3 (Herbicidal rate of 40% or more and less than 70%),1 (Herbicidal rate of 5% or more and less than 20%),3 (Herbicidal rate of 40% or more and less than 70%),5 (Herbicidal rate of 90% or more (almost completely withered)),5 (Herbicidal rate of 90% or more (almost completely withered)),0 (Herbicidal rate of 5% or less (almost no effect)),4 (Herbicidal rate of 70% or more and less than 90%),3 (Herbicidal rate of 40% or more and less than 70%),3 (Herbicidal rate of 40% or more and less than 70%),,,,,,,,,"herbicidal effect on L: windgrass (evaluation grade 0-5) [3, 18]: 5 (Herbicidal rate of 90% or more (almost completely withered)); herbicidal effect on R: persian speedwell (evaluation grade 0-5) [6, 18]: 5 (Herbicidal rate of 90% or more (almost completely withered)); herbicidal effect on P: chickweed (evaluation grade 0-5) [8, 18]: 5 (Herbicidal rate of 90% or more (almost completely withered)); herbicidal effect on G: green foxtail (evaluation grade 0-5) [9, 18]: 5 (Herbicidal rate of 90% or more (almost completely withered)); herbicidal effect on N: redroot pigweed (evaluation grade 0-5) [12, 18]: 5 (Herbicidal rate of 90% or more (almost completely withered))"
Cc1nn(C)c(=O)c(-c2c(-c3cnccc3C(F)(F)F)sc3ccc(F)cc23)c1O [2-387],4 (Herbicidal rate of 70% or more and less than 90%),,3 (Herbicidal rate of 40% or more and less than 70%),,,,,,4 (Herbicidal rate of 70% or more and less than 90%),,3 (Herbicidal rate of 40% or more and less than 70%),,4 (Herbicidal rate of 70% or more and less than 90%),5 (Herbicidal rate of 90% or more (almost completely withered)),3 (Herbicidal rate of 40% or more and less than 70%),4 (Herbicidal rate of 70% or more and less than 90%),5 (Herbicidal rate of 90% or more (almost completely withered)),4 (Herbicidal rate of 70% or more and less than 90%),3 (Herbicidal rate of 40% or more and less than 70%),,"L: windgrass, herbicidal effect (criteria 0-5) [3, 19]: 5 (Herbicidal rate of 90% or more (almost completely withered)); R: persian speedwell, herbicidal effect (criteria 0-5) [6, 19]: 5 (Herbicidal rate of 90% or more (almost completely withered)); P: chickweed, herbicidal effect (criteria 0-5) [8, 19]: 5 (Herbicidal rate of 90% or more (almost completely withered)); G: green foxtail, herbicidal effect (criteria 0-5) [9, 19]: 3 (Herbicidal rate of 40% or more and less than 70%); N: redroot pigweed, herbicidal effect (criteria 0-5) [12, 19]: 5 (Herbicidal rate of 90% or more (almost completely withered))"
CCCC(=O)Oc1c(C)nn(C)c(=O)c1-c1c(-c2ccc(C(F)(F)F)cc2)sc2cc(F)ccc12 [3-140],3 (Herbicidal rate of 40% or more and less than 70%),3 (Herbicidal rate of 40% or more and less than 70%),5 (Herbicidal rate of 90% or more (almost completely withered)),0 (Herbicidal rate of 5% or less (almost no effect)),0 (Herbicidal rate of 5% or less (almost no effect)),0 (Herbicidal rate of 5% or less (almost no effect)),0 (Herbicidal rate of 5% or less (almost no effect)),5 (Herbicidal rate of 90% or more (almost completely withered)),3 (Herbicidal rate of 40% or more and less than 70%),0 (Herbicidal rate of 5% or less (almost no effect)),3 (Herbicidal rate of 40% or more and less than 70%),0 (Herbicidal rate of 5% or less (almost no effect)),,,,,,,,5 (Herbicidal rate of 90% or more (almost completely withered)),"P: chickweed, herbicidal effect grade ([8]; foliage application, 320 g/ha): 5 (Herbicidal rate of 90% or more (almost completely withered)); G: green foxtail, herbicidal effect grade [9, 21]: 2 (Herbicidal rate of 20% or more and less than 40%); N: redroot pigweed, herbicidal effect grade [12, 21]: 5 (Herbicidal rate of 90% or more (almost completely withered))"
CCOc1ccccc1-c1sc2ccc(F)cc2c1-c1c(O)c(CC)nn(C)c1=O [2-416],2 (Herbicidal rate of 20% or more and less than 40%),,3 (Herbicidal rate of 40% or more and less than 70%),,,,,,2 (Herbicidal rate of 20% or more and less than 40%),,3 (Herbicidal rate of 40% or more and less than 70%),,0 (Herbicidal rate of 5% or less (almost no effect)),0 (Herbicidal rate of 5% or less (almost no effect)),0 (Herbicidal rate of 5% or less (almost no effect)),0 (Herbicidal rate of 5% or less (almost no effect)),5 (Herbicidal rate of 90% or more (almost completely withered)),2 (Herbicidal rate of 20% or more and less than 40%),0 (Herbicidal rate of 5% or less (almost no effect)),5 (Herbicidal rate of 90% or more (almost completely withered)),"L: windgrass, herbicidal effect grade [3, 21]: 0 (Herbicidal rate of 5% or less (almost no effect)); P: chickweed, herbicidal effect grade ([8]; foliage application, 320 g/ha): 5 (Herbicidal rate of 90% or more (almost completely withered)); G: green foxtail, herbicidal effect grade [9, 21]: 2 (Herbicidal rate of 20% or more and less than 40%); herbicidal effect, H: barnyard grass [11]: 0 (Herbicidal rate of 5% or less (almost no effect))"
Cc1nn(C)c(=O)c(-c2c(-c3ccc(OCC(C)C)cc3)oc3ccc(F)cc23)c1O [9-027],4 (Herbicidal rate of 70% or more and less than 90%),,5 (Herbicidal rate of 90% or more (almost completely withered)),,,,,,4 (Herbicidal rate of 70% or more and less than 90%),,5 (Herbicidal rate of 90% or more (almost completely withered)),,,,,,,,,,"O: lambsquarters, herbicidal effect grade [2]: 5 (Herbicidal rate of 90% or more (almost completely withered)); herbicidal effect on windgrass (L) [3, 21]: 5 (Herbicidal rate of 90% or more (almost completely withered)); R: persian speedwell, herbicidal effect grade [5]: 5 (Herbicidal rate of 90% or more (almost completely withered)); herbicidal effect on persian speedwell (R) [6, 21]: 5 (Herbicidal rate of 90% or more (almost completely withered)); M: velvetleaf, herbicidal effect grade [7]: 5 (Herbicidal rate of 90% or more (almost completely withered)); herbicidal effect on green foxtail (G) [9, 21]: 5 (Herbicidal rate of 90% or more (almost completely withered)); K: Italian ryegrass, herbicidal effect grade [10]: 4 (Herbicidal rate of 70% or more and less than 90%); H: barnyard grass, herbicidal effect grade [11]: 4 (Herbicidal rate of 70% or more and less than 90%); Herbicidal effect on H (barnyard grass), foliage application [13, 20]: 5 (Herbicidal rate of 90% or more (almost completely withered)); P: chickweed, herbicidal effect grade [15]: 1 (Herbicidal rate of 5% or more and less than 20%); L: windgrass, herbicidal effect grade [17]: 4 (Herbicidal rate of 70% or more and less than 90%)"
